Laboratory results: US6479434B1, “Composition and method for treating plants with exogenous chemicals” (Monsanto Technology LLC, priority 1996, dated 2002)

Columns and labels:
Format in all cases: in vivo
[1] = tested on: Prickly sida (Sida spinosa, SIDSP); test: Example 53 greenhouse herbicidal inhibition, asulam compositions (Table 53); settings: asulam rate 200 g a.i./ha; evaluated 14 days after application
Excerpt: (§1) Seeds of the plant species indicated were planted in 85 mm square pots in a soil mix which was previously steam sterilized and prefertilized with a 13-13-14 NPK slow release fertilizer at a rate of 3.6 kg/m^3. The pots were placed in a greenhouse with sub-irrigation. About one week after emergence, seedlings were thinned as needed, including removal of any unhealthy or abnormal plants, to create a uniform series of test pots.
(§2) The plants were maintained for the duration of the test in the greenhouse where they received a minimum of 14 hours of light per day. If natural light was insufficient to achieve the daily requirement, artificial light with an intensity of approximately 475 microeinsteins was used to make up the difference. […]
(§3) A set of pots was left untreated as a reference against which effects of the treatments could later be evaluated.
(§4) Application of glyphosate compositions was made by spraying with a track sprayer fitted with a 9501E nozzle calibrated to deliver a spray volume of 93 liters per hectare (l/ha) at a pressure of 166 kilopascals (kPa). After treatment, pots were returned to the greenhouse until ready for evaluation.
(§5) For evaluation of herbicidal effectiveness, all plants in the test were examined by a single practiced technician, who recorded percent inhibition, a visual measurement of the effectiveness of each treatment by comparison with untreated plants. […]

[2] = tested on: Japanese millet (Echinochloa crus-galli, ECHCF); test: as above; settings: asulam rate 200 g a.i./ha; evaluated 14 days after application
Excerpt: as §1, §2, §3, §4, §5

[3] = tested on: Prickly sida (Sida spinosa, SIDSP); test: Example 51 greenhouse herbicidal inhibition, paraquat dichloride compositions (Table 51); settings: evaluated 12 days after application
Excerpt: as §1
(§6) The plants were maintained for the duration of the test in the greenhouse where they received a minimum of 14 hours of light per day. If natural light was insufficient to achieve the daily requirement, artificial light with an intensity of approximately 475 microeinsteins was used to make up the difference. Exposure temperatures were not precisely controlled but averaged about 27° C. during the day and about 18° C. during the night. Plants were sub-irrigated throughout the test to ensure adequate soil moisture levels.
as §3, §4
(§7) For evaluation of herbicidal effectiveness, all plants in the test were examined by a single practiced technician, who recorded percent inhibition, a visual measurement of the effectiveness of each treatment by comparison with untreated plants.
(§8) Velvetleaf (Abutilon theophrasti, ABUTH), Japanese millet (Echinochloa crus-galli, ECHCF) and prickly sida (Sida spinosa, SIDSP) plants were grown and treated by the standard procedures given above. Applications of spray compositions were made 14 days after planting ABUTH, 8 days after planting ECHCF and 21 days after planting SIDSP. Evaluation of herbicidal inhibition was done 12 days after application.

[4] = tested on: Velvetleaf (Abutilon theophrasti, ABUTH); test: as above; settings: evaluated 12 days after application
Excerpt: as §1, §6, §3, §4, §7, §8

[5] = tested on: Japanese millet (Echinochloa crus-galli, ECHCF); test: as above; settings: evaluated 12 days after application
Excerpt: as §1, §6, §3, §4, §7, §8

[6] = tested on: Prickly sida (Sida spinosa, SIDSP); test: Example 52 greenhouse herbicidal inhibition, acifluorfen sodium compositions (Table 52); settings: evaluated 10 days after application
Excerpt: as §1, §6, §3, §4, §7
as §8, with “15” for “14”, “9” for “8”, “22” for “21”, “10” for “12”

[7] = tested on: Velvetleaf (Abutilon theophrasti, ABUTH); test: as above; settings: evaluated 10 days after application
Excerpt: as §1, §6, §3, §4, §7
as §8, with “15” for “14”, “9” for “8”, “22” for “21”, “10” for “12”

[8] = tested on: Japanese millet (Echinochloa crus-galli, ECHCF); test: as above; settings: evaluated 10 days after application
Excerpt: as §1, §6, §3, §4, §7
as §8, with “15” for “14”, “9” for “8”, “22” for “21”, “10” for “12”

[9] = tested on: Prickly sida (Sida spinosa, SIDSP); test: Example 54 greenhouse herbicidal inhibition, dicamba sodium compositions (Table 54); settings: evaluated 17 days after application
Excerpt: as §1, §6, §3, §4, §7
as §8, with “17” for “12”

[10] = tested on: Velvetleaf (Abutilon theophrasti, ABUTH); test: as above; settings: evaluated 17 days after application
Excerpt: as §1, §6, §3, §4, §7
as §8, with “17” for “12”

[11] = tested on: Japanese millet (Echinochloa crus-galli, ECHCF); test: as above; settings: evaluated 17 days after application
Excerpt: as §1, §6, §3, §4, §7
as §8, with “17” for “12”

[12] = tested on: Japanese millet (Echinochloa crus-galli, ECHCF); test: Example 57 greenhouse herbicidal inhibition, fluazifop-p-butyl compositions (Table 57); settings: fluazifop-p rate 5 g a.i./ha; evaluation 10 days after application
Excerpt: as §1, §6, §3
[…] After treatment, pots were returned to the greenhouse until ready for evaluation.
as §5

SMILES: COC(=O)NS(=O)(=O)c1ccc(N)cc1 [Asulam]
- % Inhibition SIDSP [1]: 0%
- % Inhibition ECHCF [2]: 12%

SMILES: C[n+]1ccc(-c2cc[n+](C)cc2)cc1 [Paraquat dichloride]
- % Inhibition SIDSP ([3]; paraquat rate 25 g a.i./ha): 55%
- % Inhibition SIDSP ([3]; paraquat rate 50 g a.i./ha): 60%
- % Inhibition SIDSP ([3]; paraquat rate 100 g a.i./ha): 69%
- % Inhibition SIDSP ([3]; paraquat rate 200 g a.i./ha): 99%
- % Inhibition ABUTH ([4]; paraquat rate 25 g a.i./ha): 50%
- % Inhibition ABUTH ([4]; paraquat rate 50 g a.i./ha): 57%
- % Inhibition ABUTH ([4]; paraquat rate 100 g a.i./ha): 73%
- % Inhibition ABUTH ([4]; paraquat rate 200 g a.i./ha): 85%
- % Inhibition ECHCF ([5]; paraquat rate 25 g a.i./ha): 83%
- % Inhibition ECHCF ([5]; paraquat rate 50 g a.i./ha): 78%
- % Inhibition ECHCF ([5]; paraquat rate 100 g a.i./ha): 84%
- % Inhibition ECHCF ([5]; paraquat rate 200 g a.i./ha): 95%

SMILES: O=C(O)c1cc(Oc2ccc(C(F)(F)F)cc2Cl)ccc1[N+](=O)[O-] [Acifluorfen]
- % Inhibition SIDSP ([6]; acifluorfen rate 25 g a.i./ha): 15%
- % Inhibition SIDSP ([6]; acifluorfen rate 50 g a.i./ha): 17%
- % Inhibition SIDSP ([6]; acifluorfen rate 100 g a.i./ha): 35%
- % Inhibition SIDSP ([6]; acifluorfen rate 200 g a.i./ha): 40%
- % Inhibition ABUTH ([7]; acifluorfen rate 25 g a.i./ha): 20%
- % Inhibition ABUTH ([7]; acifluorfen rate 50 g a.i./ha): 32%
- % Inhibition ABUTH ([7]; acifluorfen rate 100 g a.i./ha): 52%
- % Inhibition ABUTH ([7]; acifluorfen rate 200 g a.i./ha): 62%
- % Inhibition ECHCF ([8]; acifluorfen rate 25 g a.i./ha): 2%
- % Inhibition ECHCF ([8]; acifluorfen rate 50 g a.i./ha): 7%
- % Inhibition ECHCF ([8]; acifluorfen rate 100 g a.i./ha): 18%
- % Inhibition ECHCF ([8]; acifluorfen rate 200 g a.i./ha): 35%

SMILES: COc1c(Cl)ccc(Cl)c1C(=O)O [Dicamba]
- % Inhibition SDSP ([9]; dicamba rate 25 g a.i./ha): 30%
- % Inhibition SDSP ([9]; dicamba rate 50 g a.i./ha): 40%
- % Inhibition SDSP ([9]; dicamba rate 100 g a.i./ha): 50%
- % Inhibition SDSP ([9]; dicamba rate 200 g a.i./ha): 58%
- % Inhibition ABUTH ([10]; dicamba rate 25 g a.i./ha): 47%
- % Inhibition ABUTH ([10]; dicamba rate 50 g a.i./ha): 63%
- % Inhibition ABUTH ([10]; dicamba rate 100 g a.i./ha): 82%
- % Inhibition ABUTH ([10]; dicamba rate 200 g a.i./ha): 93%
- % Inhibition ECHCF ([11]; dicamba rate 25 g a.i./ha): 0%
- % Inhibition ECHCF ([11]; dicamba rate 50 g a.i./ha): 0%
- % Inhibition ECHCF ([11]; dicamba rate 100 g a.i./ha): 0%
- % Inhibition ECHCF ([11]; dicamba rate 200 g a.i./ha): 5%

SMILES: CCCCOC(=O)[C@@H](C)Oc1ccc(Oc2ccc(C(F)(F)F)cn2)cc1 [Fluazifop-p-butyl (technical)]
- % Inhibition ECHCF [12]: 3%
